Values of other authors, collected in patent publication US20180228146A1, “INSECTICIDAL COMPOSITION AND METHOD” (priority 2014, published 2018).
Converted amounts (≈) assume the structure as drawn.

## CCOP(=S)(OCC)Oc1nc(Cl)c(Cl)cc1Cl [chlorpyrifos, O,O-diethyl O-3,5,6-trichloro-2-pyridyl phosphorothioate]
25° C.
  Henry's law constant at 25° C.: 6.76 × 10^−1 Pa m^3 mol^−1
  Vapour pressure at 25° C.: 2.7 mPa
acetone, 25° C.
  Solubility Acetone (25° C.): 6500 g/kg
benzene, 25° C.
  Solubility Benzene (25° C.): 7900 g/kg
Carbon disulfide, 25° C.
  Solubility Carbon disulfide (25° C.): 5900 g/kg
chloroform, 25° C.
  Solubility Chloroform (25° C.): 6300 g/kg
Diethyl ether, 25° C.
  Solubility Diethyl ether (25° C.): 5100 g/kg
hydrolysis, with pH
  Stability: Rate of hydrolysis increases
iso-octanol, 25° C.
  Solubility Iso-octanol (25° C.): 790 g/kg
methanol, 25° C.
  Solubility Methanol (25° C.): 450 g/kg
Phosphate buffer, pH 7, 15° C.
  DT50 (phosphate buffer, pH 7, 15° C.): 100 d
water, 25° C.
  Solubility water (25° C.): 1.4 mg/L (≈ 3.99 µM)
water, pH 8, 25° C.
  DT50 (water, pH 8, 25° C.): 1.55 d
xylene, 25° C.
  Solubility Xylene (25° C.): 5000 g/kg
